# Experimental data taken from patent publication US8999956B2, “N-[(het)arylalkyl)] pyrazole(thio)carboxamides and their heterosubstituted analogues” (Bayer Intellectual Property GmbH, priority 2010, dated 2015).
# Where two headings read alike, the source gives them in different places.
# Key:
# [1] = log P by HPLC on reversed-phase column (EEC Directive 79/831 Annex V.A8); format: physicochemical
# Experimental: In table 1, the log P values were determined in accordance with EEC Directive 79/831 Annex V.A8 by HPLC (High Performance Liquid Chromatography) on a reversed-phase column (C18), using the method described below: Temperature: 40° C.; […]
# [2] = test system: Pyrenophora teres; test: In vivo preventive test on Pyrenophora teres (barley); settings: 500 ppm of active ingredient, evaluated 7-9 days after inoculation
# Experimental: Solvent: 49 parts by weight of N,N-dimethylformamide Emulsifier: 1 part by weight of alkylaryl polyglycol ether To produce a suitable preparation of active compound, 1 part by weight of active compound is mixed with the stated amounts of solvent and emulsifier, and the concentrate is diluted with water to the desired concentration. To test for preventive activity, young plants are sprayed with the preparation of active compound at the stated rate of application. One day after this treatment, the plants are inoculated with an aqueous spore suspension of Pyrenophora teres.
smiles,measurement,setting,value
CC(COc1ccccc1)NC(=O)c1c(C(F)F)nn(C)c1F (centres unmarked) [Example 13],logP,[1],2.66
same,Efficacy,[2],94%
Cn1nc(C(F)F)c(C(=O)NC2CCCCC2C(C)(C)C)c1F (centres unmarked) [Example 349],logP,[1],3.79
same,Efficacy,[2],95%
Cn1nc(C(F)F)c(C(=O)NCCOc2ccc(C(F)(F)F)cc2)c1F [Example 68],logP,[1],3.04
same,Efficacy,[2],80%
CCC(COc1cc(OC)ccn1)NC(=O)c1c(C(F)F)nn(C)c1Cl (centres unmarked) [Example 43],logP,[1],1.86
same,Efficacy,[2],89%
Cn1nc(C(F)F)c(C(=O)NCCCc2ccc(Cl)cc2Cl)c1Cl [Example 179],logP,[1],3.68
same,Efficacy,[2],100%
Cn1nc(C(F)F)c(C(=O)NC2CCCC2Sc2ncccn2)c1F (centres unmarked) [Example 258],logP,[1],2.17
same,Efficacy,[2],89%
Cn1nc(C(F)F)c(C(=O)NC(C)(C)CCc2cccc(C(F)(F)F)c2)c1Cl [Example 135],logP,[1],4.11
same,Efficacy,[2],90%
Cn1nc(C(F)F)c(C(=O)NCCOc2ccc(Oc3ccccc3)cc2)c1Cl [Example 35],logP,[1],3.55
same,Efficacy,[2],70%
Cn1nc(C(F)F)c(C(=O)NC2CCCCC2C2CCCCC2)c1Cl (centres unmarked) [Example 375],logP,[1],4.56
CCCN(CCOc1ccc(Cl)cc1)C(=O)c1c(C(F)F)nn(C)c1Cl [Example 54],logP,[1],3.67
Cn1nc(C(F)F)c(C(=O)NCCOc2cccc(Oc3ccccc3)c2)c1Cl [Example 75],logP,[1],3.60
Cc1ccc(C#CCN(C(=O)c2c(C(F)F)nn(C)c2F)C2CC2)s1 [Example 286],logP,[1],3.37
CON(CCC(C)c1ccc(C)o1)C(=O)c1c(C(F)F)nn(C)c1F (centres unmarked) [Example 112],logP,[1],3.23
CN(CCN(C)C(=O)c1c(C(F)F)nn(C)c1F)C(=O)c1ccccc1 [Example 230],logP,[1],1.66
Cn1nc(C(F)F)c(C(=O)N(CC#Cc2cc3ccccc3s2)C2CC2)c1F [Example 276],logP,[1],3.85
CN(CC(=O)OCc1ccccc1)C(=O)c1c(C(F)F)nn(C)c1F [Example 226],logP,[1],2.44
CC1CC(N(C(=S)c2c(C(F)F)nn(C)c2F)C2CC2)CC(C)(C)C1 (centres unmarked) [Example 323],logP,[1],4.96
CCCC1CCCCC1NC(=S)c1c(C(F)F)nn(C)c1F (centres unmarked) [Example 345],logP,[1],4.21
CN(CC=Cc1ccccc1)C(=O)c1c(C(F)F)nn(C)c1Cl [Example 261],logP,[1],2.84
Cn1nc(C(F)F)c(C(=O)N(CC#Cc2ccccc2)C(C)(C)C)c1Cl [Example 268],logP,[1],3.96
Cn1nc(C(F)F)c(C(=O)NCCS(=O)(=O)c2ccc(Cl)cc2)c1F [Example 58],logP,[1],2.10
CC(COc1c(Cl)cc(Cl)cc1Cl)NC(=O)c1c(C(F)F)nn(C)c1Cl (centres unmarked) [Example 211],logP,[1],4.20
CN(CC#Cc1ccco1)C(=O)c1c(C(F)F)nn(C)c1F [Example 281],logP,[1],2.32
Cn1nc(C(F)F)c(C(=O)N(C2CC2)C2CCCCC2C2=CCCCC2)c1Cl (centres unmarked) [Example 377],logP,[1],5.17
CN(C(=O)c1c(C(F)F)nn(C)c1Cl)C(COc1ccc2ccccc2c1)C1CC1 (racemic) [Example 140],logP,[1],3.96
Cn1nc(C(F)F)c(C(=O)NC(COc2ccccc2)C2CC2)c1Cl (centres unmarked) [Example 20],logP,[1],3.25
COCCN(CC=Cc1ccccc1)C(=O)c1c(C(F)F)nn(C)c1F [Example 266],logP,[1],2.86
CN(CC(NC(=O)c1c(C(F)F)nn(C)c1Cl)C1CC1)c1ccccc1 (centres unmarked) [Example 18],logP,[1],3.31
CC(C)N(CCOc1c(Cl)cc(Cl)cc1Cl)C(=O)c1c(C(F)F)nn(C)c1Cl [Example 208],logP,[1],4.71
CN(C(=O)c1c(C(F)F)nn(C)c1Cl)C(COc1ccccc1Cl)C1CC1 (racemic) [Example 146],logP,[1],3.67
CCN(CC=Cc1ccccc1)C(=O)c1c(C(F)F)nn(C)c1Cl [Example 263],logP,[1],3.17
CN(CCCc1cccs1)C(=O)c1c(C(F)F)nn(C)c1F [Example 104],logP,[1],2.52
CC(CCc1cccs1)N(C(=O)c1c(C(F)F)nn(C)c1Cl)C1CC1 (centres unmarked) [Example 103],logP,[1],3.57
Cn1nc(C(F)F)c(C(=O)N(CCOc2c(Cl)cc(Cl)cc2Cl)C2CCCC2)c1F [Example 209],logP,[1],5.08
Cn1nc(C(F)F)c(C(=O)N(CCCC2CCCO2)C2CC2)c1F (centres unmarked) [Example 114],logP,[1],2.21
Cn1nc(C(F)F)c(C(=O)NCCCC2Cc3ccccc3O2)c1F (centres unmarked) [Example 97],logP,[1],2.69
Cn1nc(C(F)F)c(C(=O)N(CCOc2ccc(Cl)cc2)C2CCC2)c1Cl [Example 52],logP,[1],3.99
Cn1nc(C(F)F)c(C(=O)N(CCCc2cccs2)C2CC2)c1F [Example 102],logP,[1],3.04
Cn1nc(C(F)F)c(C(=O)NC2(C(F)(F)F)CCCCC2)c1Cl [Example 386],logP,[1],3.15
CC(CCc1ncc(C(F)(F)F)cc1Cl)N(C(=O)c1c(C(F)F)nn(C)c1F)C1CC1 (centres unmarked) [Example 86],logP,[1],3.92
COCCCCNC(=O)c1c(C(F)F)nn(C)c1F [Example 305],logP,[1],1.40
Cn1nc(C(F)F)c(C(=O)NC(C)(C)C(=O)Nc2ccccc2)c1Cl [Example 25],logP,[1],2.27
Cn1nc(C(F)F)c(C(=O)N(CC#Cc2cc3ccccc3o2)C2CC2)c1F [Example 275],logP,[1],3.55
CC(CSCc1ccco1)N(C)C(=O)c1c(C(F)F)nn(C)c1Cl (centres unmarked) [Example 239],logP,[1],2.64
CN(CCCc1ccco1)C(=O)c1c(C(F)F)nn(C)c1F [Example 101],logP,[1],2.25
Cn1nc(C(F)F)c(C(=O)NCCOc2c(F)cccc2F)c1Cl [Example 160],logP,[1],2.64
CN(CC#Cc1ccccc1)C(=O)c1c(C(F)F)nn(C)c1Cl [Example 270],logP,[1],2.92
CCC(COc1cccc2ccccc12)NC(=O)c1c(C(F)F)nn(C)c1Cl (centres unmarked) [Example 223],logP,[1],3.85
CC1CCCC(Cc2cccc(Cl)c2)C1NC(=O)c1c(C(F)F)nn(C)c1Cl (centres unmarked) [Example 80],logP,"[1]; HPLC on reversed-phase column (C18), 40° C., 0.1% aqueous formic acid and acetonitrile, linear gradient 10% to 90% acetonitrile",4.51
CC#CC1(NC(=O)c2c(C(F)F)nn(C)c2F)CCCCC1 [Example 382],logP,[1],2.90
CC(C)C(C(=O)OCc1ccccc1)N(C)C(=O)c1c(C(F)F)nn(C)c1F (centres unmarked) [Example 227],logP,[1],3.35
CC(C)CC(C)C1CCCCC1NC(=S)c1c(C(F)F)nn(C)c1Cl (centres unmarked) [Example 336],logP,[1],5.42
Cn1nc(C(F)F)c(C(=O)NC2CCCCC2C(C)(C)C)c1Cl (centres unmarked) [Example 348],logP,[1],4.15
CC(C)N(CC(=O)Nc1ccccc1)C(=O)c1c(C(F)F)nn(C)c1F [Example 1],logP,[1],2.25
Cn1nc(C(F)F)c(C(=O)N(CCCc2ccco2)C2CC2)c1F [Example 99],logP,[1],2.75
Cc1ccc(CCCN(C(=O)c2c(C(F)F)nn(C)c2F)C2CC2)s1 [Example 113],logP,[1],3.44
Cn1nc(C(F)F)c(C(=O)NCCOc2ccc(-c3ccccc3)cc2)c1Cl [Example 26],logP,[1],3.60
Cn1nc(C(F)F)c(C(=O)NC(CCc2ccc(Cl)cc2)C(C)(C)C)c1Cl (centres unmarked) [Example 61],logP,[1],4.41
Cn1nc(C(F)F)c(C(=O)NC(COc2ccc3ccccc3c2)C2CC2)c1Cl (racemic) [Example 138],logP,[1],3.94
Cn1nc(C(F)F)c(C(=O)NCCOc2cc(Cl)cc(Cl)c2)c1Cl [Example 118],logP,[1],3.55
Cn1nc(C(F)F)c(C(=O)NCCOc2ccc(-c3ccccc3)cc2)c1F [Example 27],logP,[1],3.44
Cn1nc(C(F)F)c(C(=S)NC2CCCCC2CCC(C)(C)C)c1Cl (centres unmarked) [Example 356],logP,[1],5.60
Cn1nc(C(F)F)c(C(=O)N(CC#Cc2ccccc2)C2CCCC2)c1Cl [Example 274],logP,[1],3.92
Cn1nc(C(F)F)c(C(=O)N(CCCc2cc3ccccc3s2)C2CC2)c1F [Example 94],logP,[1],3.79
CC#CC1(NC(=O)c2c(C(F)F)nn(C)c2Cl)CCCCC1 [Example 383],logP,[1],3.11
CCCN(CC(=O)Nc1c(Cl)cc(Cl)cc1Cl)C(=O)c1c(C(F)F)nn(C)c1Cl [Example 199],logP,[1],3.11
CCCCCCC1CCCCC1NC(=S)c1c(C(F)F)nn(C)c1F (centres unmarked) [Example 327],logP,[1],5.81
Cc1ccc(C(C)CCN(C)C(=O)c2c(C(F)F)nn(C)c2F)o1 (centres unmarked) [Example 109],logP,[1],2.88
Cn1nc(C(F)F)c(C(=O)N(CC#Cc2ccccc2)C(C)(C)C)c1F [Example 267],logP,[1],3.83
Cn1nc(C(F)F)c(C(=S)NC2CCCC2CCC(C)(C)C)c1F (centres unmarked) [Example 321],logP,[1],5.01
COCCN(CC=Cc1ccccc1)C(=O)c1c(C(F)F)nn(C)c1Cl [Example 265],logP,[1],3.02
CN(CC=Cc1ccccc1)C(=O)c1c(C(F)F)nn(C)c1F [Example 262],logP,[1],2.73
CCC(CCc1sccc1Br)NC(=O)c1c(C(F)F)nn(C)c1Cl (centres unmarked) [Example 90],logP,[1],3.63
Cn1nc(C(F)F)c(C(=O)N(CCOc2ccc(Cl)cc2)C2CCCC2)c1Cl [Example 51],logP,[1],4.32
CCCN(CCCOc1c(C)cc(C)cc1C)C(=O)c1c(C(F)F)nn(C)c1F [Example 235],logP,[1],4.27
Cn1nc(C(F)F)c(C(=O)NCC(=O)Nc2c(Cl)cc(Cl)cc2Cl)c1F [Example 197],logP,[1],2.39
CN(CC#Cc1cc2ccccc2s1)C(=O)c1c(C(F)F)nn(C)c1F [Example 278],logP,[1],3.39
Cn1nc(C(F)F)c(C(=O)NC(CCc2ccc(Cl)cc2)C(C)(C)C)c1F (centres unmarked) [Example 60],logP,[1],4.24
Cn1nc(C(F)F)c(C(=O)N(CC#Cc2ccccc2)C2CC2)c1Cl [Example 272],logP,[1],3.33
Cn1nc(C(F)F)c(C(=O)N(CC#Cc2ccco2)C2CC2)c1F [Example 279],logP,[1],2.70
Cn1nc(C(F)F)c(C(=O)NCC#Cc2ccco2)c1F [Example 280],logP,[1],2.14
